Type in all cases: cell-based
The test system of assay [1] is Scenedesmus obliquus. Nature of the assay: Effect of hormone concentrations on growth rate of Scenedesmus obliquus, photoheterotrophic. To be noted: 48 hours, control 0.41.
Assay [2] relates to Scenedesmus obliquus. Nature of the assay: Effect of hormone concentrations on growth rate of Scenedesmus obliquus, heterotrophic. To be noted: 48 hours, control 0.35.
The test system of assay [3] is Chlorella protothecoides. Nature of the assay: Effect of hormone concentrations on growth rate of Chlorella protothecoides, photoheterotrophic. To be noted: 48 hours, control 1.05. The method, then:
The influence of light exposure during Scenedesmus obliquus and Chlorella protothecoides growth was assessed. The growth rates of both algae were higher in photoheterotrophic growth conditions. The Scenedesmus obliquus growth rate was about 86.7% higher under photoheterotrophic growth. Meanwhile, the Chlorella protothecoides growth rate increased 39.07% when the growth was conducted under photoheterotrophic growth.

For assay [4], the system named is Chlorella protothecoides. Nature of the assay: Effect of hormone concentrations on growth rate of Chlorella protothecoides, heterotrophic. To be noted: 48 hours, control 1.54.
The test system of assay [5] is Auxenochlorella protothecoides. Nature of the assay: Auxenochlorella protothecoides culture with growth regulator, dry weight and oil after seven days. To be noted: 2 mg/L. The method, then:
Auxenochlorella protothecoides was grown in Bristol's medium (see above) amended with 0.1% yeast extract (see above) and 0.5% glucose (control cells). Two other groups were cultured in the same medium with either indole acetic acid (2 mg/L, Cat. No. 12886, Sigma-Aldrich Canada Ltd.) or giberellic acid (2 mg/L, Cat. No. G7645, Sigma-Aldrich Canada Ltd.) added. Dry weights were determined and compared between the culture groups after seven days.

With `O=C(O)COc1ccc(Cl)cc1Cl` [2,4-Dichlorophenoxyacetic, 2,4-dichlorophenoxyacetic acid], the growth rate came to 0.42 in assay [1] (0.01 ng); 0.44 in assay [1] (0.1 ng); 0.47 in assay [1] (1 ng); 0.44 in assay [1] (10 ng); 0.33 in assay [1] (100 ng); 0.28 in assay [2] (0.01 ng). Further, the growth rate in assay [2] (0.1 ng) was found to be 0.23; in assay [2] (1 ng), 0.31; in assay [2] (10 ng), 0.24; in assay [2] (100 ng) it was 0.23; in assay [3] (0.01 ng) it was 1.09; in assay [3] (0.1 ng) it was 1.08. For the same molecule, the growth rate is listed as 1.01 in assay [3] (1 ng); 1.08 in assay [3] (10 ng); 1.03 in assay [3] (100 ng); 1.40 in assay [4] (0.01 ng); 1.53 in assay [4] (0.1 ng); 1.43 in assay [4] (1 ng). Besides, the growth rate worked out at 1.31 in assay [4] (10 ng) and 1.50 in assay [4] (100 ng).
With `O=C(O)Cc1c[nH]c2ccccc12` [Indole-3-acetic acid, indole-3-acetic acid], in assay [5], the “increase of dry cell mass relative to the control” value was 50%. Further, the “increase of oil production” value in assay [5] came out at 15%. Also, the growth rate in assay [1] (0.01 ng) came out at 0.42; in assay [1] (0.1 ng) it was 0.47; in assay [1] (1 ng), 0.49; in assay [1] (10 ng) it was 0.49; in assay [1] (100 ng), 0.62; in assay [2] (0.01 ng) it was 0.23. Also, the growth rate in assay [2] (0.1 ng) amounted to 0.36; in assay [2] (1 ng), 0.42; in assay [2] (10 ng), 0.47; in assay [2] (100 ng) it was 0.41; in assay [3] (0.01 ng), 1.06; in assay [3] (0.1 ng), 1.05. The growth rate in assay [3] (1 ng) turned out to be 0.97; in assay [3] (10 ng) it was 1.13; in assay [3] (100 ng), 1.02; in assay [4] (0.01 ng), 1.62; in assay [4] (0.1 ng), 1.61; in assay [4] (1 ng), 1.49. For the same molecule, the growth rate in assay [4] (10 ng) and in assay [4] (100 ng) was 1.60 in each case.
On to `c1ccc(CNc2ncnc3nc[nH]c23)cc1` [6-Benzylaminopurine, 6-benzylaminopurine], for which the growth rate in assay [1] (0.01 ng) is 0.46; in assay [1] (0.1 ng) it was 0.37; in assay [1] (1 ng) it was 0.47; in assay [1] (10 ng) it was 0.47; in assay [1] (100 ng) it was 0.52; in assay [2] (0.01 ng) it was 0.28. Also, the growth rate in assay [2] (0.1 ng) is on record as 0.32; in assay [2] (1 ng), 0.39; in assay [2] (10 ng), 0.36; in assay [2] (100 ng) it was 0.33; in assay [3] (0.01 ng) it was 1.00; in assay [3] (0.1 ng) it was 1.12. The growth rate came out at 1.07 in assay [3] (1 ng); 1.04 in assay [3] (10 ng); 1.08 in assay [3] (100 ng); 1.48 in assay [4] (0.01 ng); 1.54 in assay [4] (0.1 ng); 1.50 in assay [4] (1 ng). The growth rate in assay [4] (10 ng) turned out to be 1.52; in assay [4] (100 ng) it was 1.46.
Turning to `O=C(O)Cc1cccc2ccccc12` [1-Naphthaleneacetic acid], the growth rate was 0.84 in assay [1] (0.01 ng); 0.85 in assay [1] (0.1 ng); 0.81 in assay [1] (1 ng); 0.80 in assay [1] (10 ng); 0.73 in assay [1] (100 ng); 0.26 in assay [2] (0.01 ng). For the same molecule, the growth rate in assay [2] (0.1 ng) is 0.28; in assay [2] (1 ng) it was 0.33; in assay [2] (10 ng) it was 0.28; in assay [2] (100 ng), 0.39; in assay [3] (0.01 ng) it was 1.00; in assay [3] (0.1 ng), 1.02. The growth rate came to 1.05 in assay [3] (1 ng); 1.07 in assay [3] (10 ng); 1.16 in assay [3] (100 ng); 1.66 in assay [4] (0.01 ng); 1.54 in assay [4] (0.1 ng); 1.62 in assay [4] (1 ng). Moreover, the growth rate in assay [4] (10 ng) is reported as 1.57; in assay [4] (100 ng) it was 1.62.
For `c1coc(CNc2ncnc3[nH]cnc23)c1` [Kinetin, kinetin], the growth rate in assay [1] (0.01 ng) is reported as 0.57; in assay [1] (0.1 ng), 0.73; in assay [1] (1 ng), 0.92; in assay [1] (10 ng), 0.37; in assay [1] (100 ng), 0.36; in assay [2] (0.01 ng), 0.28. For the same molecule, the growth rate in assay [2] (0.1 ng) came out at 0.26; in assay [2] (1 ng), 0.36; in assay [2] (10 ng) it was 0.31; in assay [2] (100 ng), 0.28; in assay [3] (0.01 ng), 1.08; in assay [3] (0.1 ng), 1.10. The growth rate in assay [3] (1 ng) is on record as 1.02; in assay [3] (10 ng), 1.18; in assay [3] (100 ng) it was 1.19; in assay [4] (0.01 ng), 1.60; in assay [4] (0.1 ng) it was 1.50; in assay [4] (1 ng), 1.44. The growth rate in assay [4] (10 ng) came to 1.60; in assay [4] (100 ng), 1.58.
As to `C=C1C[C@]23C[C@@]1(O)CC[C@H]2[C@@]12C=C[C@H](O)[C@@](C)(C(=O)O1)[C@H]2[C@@H]3C(=O)O` [Gibberellic acid], the “increase of dry cell mass relative to the control” value in assay [5] came to 20%. Further, the growth rate in assay [1] (0.01 ng) was 0.59; in assay [1] (0.1 ng) it was 0.47; in assay [1] (1 ng), 0.56; in assay [1] (10 ng) it was 0.56; in assay [1] (100 ng), 0.51; in assay [2] (0.01 ng), 0.44. Further, the growth rate in assay [2] (0.1 ng) amounted to 0.50; in assay [2] (1 ng), 0.43; in assay [2] (10 ng), 0.36; in assay [2] (100 ng) it was 0.42; in assay [3] (0.01 ng), 1.06; in assay [3] (0.1 ng), 1.02. Further, the growth rate in assay [3] (1 ng) is reported as 1.00; in assay [3] (10 ng) it was 1.09; in assay [3] (100 ng) it was 1.10; in assay [4] (0.01 ng) it was 1.52; in assay [4] (0.1 ng), 1.52; in assay [4] (1 ng), 1.46. Moreover, the figures for the growth rate in assay [4] (10 ng) and in assay [4] (100 ng) were 1.52 and 1.46, respectively.

These data come from patent publication US20210307272A1, “USE OF PLANT GROWTH REGULATORS TO ENHANCE ALGAE GROWTH FOR THE PRODUCTION OF ADDED VALUE PRODUCTS” (priority 2009, published 2021).
